Columns and labels:
[1] = system: polyglucosan body (PB) in APBD patient-derived fibroblasts; assay: High content (image-based) PAS screening assay for polyglucosan bodies; type: cell-based, human; conditions: 0, 1, 5, 10 and 50 μM
Description: All the steps of the assay were performed automatically using a Freedom Evo 150 liquid handling robot (Tecan). APBD patient-derived fibroblasts were seeded at a density of 800 cells/well in DMEM (Gibco) supplemented with 1 mM sodium pyruvate (Gibco), 1% antibiotics (Biological Industries, Israel) and 5% fetal bovine serum (Hyclone) into 384 well microclear plates (Greiner). The plates were transferred by the robotic arm (RoMa) into an automated incubator (Liconic), integrated with the robotic system, where they were incubated at 37° C. with 5% CO2. Following 24 h incubation, the medium was replaced by the robot using medium supplemented with 10 μM of each screened compound (0.1% DMSO final concentration, all prepared by the robot). The screened compounds were part of the Diverset CL collection purchased from ChemBridge (10,084 out of 50,000 molecules).
Next, these cells were cultured for another 24 h in the automated incubator, and, using the robot, washed them with PBS (Biological Industries, Israel), the cells were fixed with 4% paraformaldehyde (PFA), washed again with PBS, neutralized the previously added PFA by ammonium chloride (Sigma Aldrich), washed with PBS, permeabilized with 0.1% Triton X-100 (Sigma Aldrich), and washed again with PBS.
Following this, a robot was used to treat the fixed cells with 0.5 g/dl diastase (or amylase, Sigma Aldrich) for 5 minutes at 37° C. in the automated incubator, wash with PBS, stained with PAS (Merck), Hoechst 33342 (Sigma Aldrich) and Cell Mask Deep Red (Molecular Probes) and wash with PBS. Images of stained cells were then acquired by the IN Cell Analyzer 2000 (GE Healthcare) and analyzed using the IN Cell Investigator (GE Healthcare) applying an algorithm that quantified the PAS signal within each Cell Mask stained cell.
Images were segmented based on the Cell Mask signal which was linked with the segmentation of the nuclei, employing an empirically established sensitivity and kernel size for allowing the best segmentation. Once these nucleus-cytoplasm complex objects were selected, the software calculated the number of these objects (cell number) as well as the intensity of the PAS signal within each of them. All the assay parameters (including the acquisition exposure times, objective, and the analysis parameters) were kept constant throughout the whole screening campaign for allowing comparison of signals obtained from different batches of assay within the campaign.
The assay was performed as mentioned above, but with compound concentrations of 1, 5, 10, and 50 μM, instead of a constant concentration of 10 μM.
The discarded data was presumably associated with cells affected by toxic compounds. In the remaining data, the measured population mean PB intensity was normalized. Based on a series of images used for training, compounds were considered as positive only where following treatment the normalized PB mean intensity was at least under −1.2 z-score of the scale. Following this approach, 85 potential hits out of the 10,084 screened compounds were selected (0.84%).

[2] = biological target: T1, recombinant human GS1 (Homo sapiens, UniProt P13807); assay: In vitro GS activity assay; type: biochemical; conditions: 50 μM; unpaired t-tests, p<0.05
T1 sequence (P13807 1-737): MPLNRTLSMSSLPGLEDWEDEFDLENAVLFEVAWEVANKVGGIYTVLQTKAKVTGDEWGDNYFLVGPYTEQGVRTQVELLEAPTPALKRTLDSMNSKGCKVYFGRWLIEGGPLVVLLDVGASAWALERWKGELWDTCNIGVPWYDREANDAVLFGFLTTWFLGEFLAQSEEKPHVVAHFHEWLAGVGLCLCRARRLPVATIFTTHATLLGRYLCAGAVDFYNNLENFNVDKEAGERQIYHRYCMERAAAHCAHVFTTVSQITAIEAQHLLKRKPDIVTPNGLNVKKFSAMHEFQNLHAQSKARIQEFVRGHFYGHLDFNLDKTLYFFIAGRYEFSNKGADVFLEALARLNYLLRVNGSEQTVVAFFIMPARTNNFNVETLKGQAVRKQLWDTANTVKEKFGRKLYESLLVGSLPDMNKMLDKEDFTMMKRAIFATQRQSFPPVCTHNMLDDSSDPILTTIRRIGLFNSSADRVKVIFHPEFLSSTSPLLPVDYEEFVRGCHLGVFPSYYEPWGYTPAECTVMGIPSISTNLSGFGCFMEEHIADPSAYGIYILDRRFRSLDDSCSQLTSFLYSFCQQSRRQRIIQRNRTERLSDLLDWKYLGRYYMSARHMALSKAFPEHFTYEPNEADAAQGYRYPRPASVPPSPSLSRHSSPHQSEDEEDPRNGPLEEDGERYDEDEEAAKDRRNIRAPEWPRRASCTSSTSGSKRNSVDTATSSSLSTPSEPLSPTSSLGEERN
Description: The reaction was carried out in 96-well plates containing 50 μl of reaction volume (50 mM Tris, pH8, 20 mM EDTA, 25 mM KF, 2 mg/ml glycogen, 10 mM Glucose-6-Phosphate, 1.65 mM UDP[14C]glucose and 100 mM UDP-glucose). To test the inhibitory effect of the hits, each one was included in the reaction at a final concentration of 50 μM. The reaction was initiated with the addition of 20 nM recombinant human GS1, followed by incubation at 37° C. for 30 min. The reaction was then stopped with the addition of 100 μl cold 100% ethanol, and the total suspension was transferred into a 96-well filter plate. Vacuum was applied to remove the ethanol. Five washing steps with 150 μl of cold 66% ethanol then fully removed any non-incorporated UDP[14C]glucose, while the labelled glycogen stayed on the well filters. The plate was dried at 37° C. incubator for 30 min. 50 μl of scintillation fluid was added to each well and the plate was read for 14C signal on Microplate scintillation and luminescence counter Top Count (Perkin Elmer).

[3] = system: APBD modeling mice (Gbe^Y329S/Y329S mouse model); assay: Motor parameters in APBD modeling mice; type: in vivo
Description: This study was conducted in compounds A and B according to the schemes described in Tables 8 and 9, respectively.
As vehicle control, 0.1% DMSO was used. It is noteworthy that, in order to have a statistically significant number of animals, compound A was tested in male mice and compound B in female mice (no mixed cages were allowed).
APBD is an autosomal disease with no gender related symptoms and it was presumed that this experimental design is optimal. The mode of delivery of the compounds was intravenous (IV) injection for the first month, followed by subcutaneous injection due to lack of injection space and scaring in animal tails.
Tables 8 and 9 describe the study design for compounds A and B. both compounds were tested at the age of 4 months, two months prior to disease onset, in order to assess possible prophylactic effects, and at the age of 6 months, at disease onset, in order to assess corrective effects.
The effect of compounds A and B on various motor parameters was tested every two weeks. The results are shown in herein.
The point of reference is one time point prior to treatment initiation. Please note, since animals first treated with the compounds at 6 months of age were not injected at all before that age, they could not have been compared to animals pre-injected with vehicle. Therefore, the duration of the longitudinal studies for the cohorts first treated at the age of 6 months is shorter than that of the animals first treated at 4 months of age.

[4] = treated from 4 months of age (2 months before onset), two way ANOVA with repeated measures
[5] = treated from 4 months of age, Bonferroni's multiple comparisons test
[6] = treated from 6 months of age (at onset), two way ANOVA with repeated measures
[7] = treated from 6 months of age, Bonferroni's multiple comparisons test

COCc1c(C(=O)N2[C@@H]3CC[C@H]2CN(C)C(=O)C3)noc1C (relative stereo) [UDP #19, (1S*,6R*)-9-{[4-(methoxymethyl)-5-methylisoxazol-3-yl]carbonyl}-3-methyl-3,9-diazabicyclo[4.2.1]nonan-4-one]
dose response of diastase resistant cell associated mean PAS intensity normalized by z-score [1]: concentration dependent
effect on GS activity (direction of change) [2]: increasing
apathy, mobility and responsiveness to experimenter ([3]; 250 mg/kg, IV first month then subcutaneous): less apathic, more mobile and more responsive to intervention by the experimenter
ameliorating effect on motor parameters (summary) ([3]; 250 mg/kg, IV first month then subcutaneous, tested every two weeks): ameliorate grip strength
average duration in movement in an open field test vs vehicle [3, 4]: not different from vehicle (p<0.1)
average front paw grip strength vs vehicle [3, 4]: different from vehicle with p<0.055
average gait length vs vehicle [3, 4]: not different from vehicle (p<0.1)
average gait width vs vehicle [3, 4]: not different from vehicle (p<0.1)
average latency to fall off a metal wire vs vehicle [3, 4]: not different from vehicle (p<0.1)
average latency to fall off a rotating cylinder (rotarod) vs vehicle [3, 4]: the latency to fall was shorter in treated animals (p<0.089)
average regularity of step distance (Coefficient of Variance of all R-R and L-L step distances) vs vehicle [3, 4]: not different from vehicle (p<0.1)
average uniformity of step alternation (|0.5-(R-L/R-R)|) vs vehicle [3, 4]: not different from vehicle (p<0.1)
extension reflex vs vehicle [3, 4]: not different from vehicle (p<0.1)
average duration in movement in an open field test vs vehicle [3, 5]: no significant difference
average front paw grip strength vs vehicle [3, 5]: no significant difference
average gait length vs vehicle [3, 5]: no significant difference
average gait width vs vehicle [3, 5]: no significant difference
average latency to fall off a metal wire vs vehicle [3, 5]: no significant difference
average latency to fall off a rotating cylinder (rotarod) vs vehicle [3, 5]: 57 days after treatment initiation latency to fall was lower in treated mice as compared to vehicle control (p<0.05)
average regularity of step distance vs vehicle [3, 5]: no significant difference
average uniformity of step alternation vs vehicle [3, 5]: no significant difference
extension reflex vs vehicle [3, 5]: no significant difference
average duration in movement in an open field test vs vehicle [3, 6]: not different from vehicle (p<0.1)
average front paw grip strength vs vehicle [3, 6]: different from vehicle with p<0.1
average gait length vs vehicle [3, 6]: not different from vehicle (p<0.1)
average gait width vs vehicle [3, 6]: not different from vehicle (p<0.1)
average latency to fall off a metal wire vs vehicle [3, 6]: not different from vehicle (p<0.1)
average latency to fall off a rotating cylinder (rotarod) vs vehicle [3, 6]: the latency to fall was shorter in treated animals (p<0.089)
average regularity of step distance vs vehicle [3, 6]: not different from vehicle (p<0.1)
average uniformity of step alternation (|0.5-(R-L/R-R)|) vs vehicle [3, 6]: not different from vehicle (p<0.1)
extension reflex vs vehicle [3, 6]: not different from vehicle (p<0.1)
average duration in movement in an open field test vs vehicle [3, 7]: no significant difference
average front paw grip strength vs vehicle [3, 7]: no significant difference
average gait length vs vehicle [3, 7]: no significant difference
average gait width vs vehicle [3, 7]: no significant difference
average latency to fall off a metal wire vs vehicle [3, 7]: no significant difference
average latency to fall off a rotating cylinder (rotarod) vs vehicle [3, 7]: no significant difference
average regularity of step distance vs vehicle [3, 7]: no significant difference
average uniformity of step alternation vs vehicle [3, 7]: a significant difference (p<0.05) between vehicle and treatment at 53 days after treatment initiation
extension reflex vs vehicle [3, 7]: no significant difference

Reference: patent publication US12065435B2, “Compounds for the treatment of glycogen storage disorders” (HADASIT MEDICAL RESEARCH SERVICES AND DEVELOPMENT LTD., priority 2017, dated 2024)
